Results published in patent US4283418A, “Guanidinobenzoic acid derivatives and process for their preparation” (Ono Pharmaceutical Co., Ltd., priority 1979, dated 1981).
pIC50: −log10 of the molar value.

Key:
trypsin = target: T1, trypsin (Bos taurus, UniProt P00760); assay: Inhibition of trypsin hydrolysis of p-tosylarginine methyl ester in vitro; format: biochemical; conditions: trypsin 0.5 μg, p-tosylarginine methyl ester 20 mM, Tris-HCl pH 8.5, 37° C., 30 minutes; read-out: 50% Inhibition Concentration Anti-trypsin
T1 sequence (P00760 24-246): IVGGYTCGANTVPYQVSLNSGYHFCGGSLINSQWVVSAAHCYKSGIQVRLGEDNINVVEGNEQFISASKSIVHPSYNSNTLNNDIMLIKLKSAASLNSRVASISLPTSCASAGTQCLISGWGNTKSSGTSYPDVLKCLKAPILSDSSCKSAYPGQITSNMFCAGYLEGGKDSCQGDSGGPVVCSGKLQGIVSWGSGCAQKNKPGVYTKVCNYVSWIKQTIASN
Description: (§1) The inhibitory activities of representative compounds of the general formula [I] against plasmin and trypsin in vitro were determined in a manner similar to the method described by M. Muramatsu et al J. Biochemistry, 58, 214 (1964) for trypsin and the method described by M. Muramatsu et al ibid, 57, 402 (1965) for plasmin. The procedures used are described more specifically below.
(1) Trypsin: 0.4 ml of trypsin (1.25 μg/ml), 0.5 ml of p-tosylarginine methyl ester (20 mM) in Tris-HCl buffer (pH 8.5) and 0.1 ml of a solution of each of the following compounds represented by the general formula [I] at various concentrations was reacted at a temperature of 37° C. for 30 minutes, and the concentration of each of the test compounds at which the activity of trypsin 0.5 μg to hydrolyze p-tosylarginine methyl ester was inhibited to an extent of 50% is shown in Table 1 below.

plasmin = target: T2, plasmin (Homo sapiens, UniProt P00747); assay: Inhibition of plasmin in vitro (human euglobulin, streptokinase, fibrinogen); format: biochemical; conditions: borate saline buffer pH 7.4, 37° C., 30 minutes, read-out: 50% Inhibition Concentration Anti-Plasmin
T2 construct: from tissue
Description: as §1
(2) Plasmin: 0.1 ml of human euglobulin (10 fold dilution), 0.1 ml of streptokinase (2000 unit/ml), 0.4 ml of fibrinogen (4% solution), 0.3 ml of a 0.1 M borate saline buffer solution (pH 7.4) and 0.1 ml of a solution of each of the following compounds represented by the general formula [I] at various concentrations was allowed to react at a temperature of 37° C. for 30 minutes.

Solubility in water = format: physicochemical

T2 sequence (P00747 97-580 limits assumed): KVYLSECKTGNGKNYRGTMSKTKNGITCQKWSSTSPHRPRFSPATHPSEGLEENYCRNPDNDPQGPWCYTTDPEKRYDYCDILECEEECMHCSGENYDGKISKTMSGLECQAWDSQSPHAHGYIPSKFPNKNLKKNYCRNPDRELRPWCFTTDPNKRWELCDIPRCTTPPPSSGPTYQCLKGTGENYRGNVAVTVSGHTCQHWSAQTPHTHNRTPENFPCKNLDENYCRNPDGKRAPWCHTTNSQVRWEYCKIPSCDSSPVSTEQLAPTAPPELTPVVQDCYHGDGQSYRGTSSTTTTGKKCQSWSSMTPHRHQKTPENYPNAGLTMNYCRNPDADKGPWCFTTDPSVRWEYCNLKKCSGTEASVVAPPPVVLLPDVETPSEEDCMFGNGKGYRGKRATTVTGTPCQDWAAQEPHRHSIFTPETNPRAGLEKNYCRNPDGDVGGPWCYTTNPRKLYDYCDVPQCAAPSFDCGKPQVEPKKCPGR
T2 sequence (P00747 581-810 limits assumed): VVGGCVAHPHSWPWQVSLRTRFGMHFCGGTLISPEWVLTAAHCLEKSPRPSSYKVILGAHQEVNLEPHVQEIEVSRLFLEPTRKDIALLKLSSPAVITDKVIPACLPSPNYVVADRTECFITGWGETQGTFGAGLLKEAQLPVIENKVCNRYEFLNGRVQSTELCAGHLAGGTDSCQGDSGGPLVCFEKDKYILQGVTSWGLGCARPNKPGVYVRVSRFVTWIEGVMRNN

| SMILES | pIC50 (trypsin) | pIC50 (plasmin) | solubility (Solubility in water) |
| --- | --- | --- | --- |
| N=C(N)Nc1ccc(C(=O)Oc2ccc(S(N)(=O)=O)cc2)cc1 [Compound No. 3] | 8.66 | 8.32 | > 20 mM |
| CN(C)C(=O)Cc1ccc(OC(=O)c2ccc(NC(=N)N)cc2)cc1 [Compound No. 4] | 8.47 | 6.57 | > 20 mM |
| CNS(=O)(=O)c1ccc(OC(=O)c2ccc(NC(=N)N)cc2)cc1 [Compound No. 1] | 8.52 | 8.51 | > 20 mM |
| CNC(=O)Cc1ccc(OC(=O)c2ccc(NC(=N)N)cc2)cc1 [Compound No. 5] | 8.04 | 6.39 | > 20 mM |
| CN(C)S(=O)(=O)c1ccc(OC(=O)c2ccc(NC(=N)N)cc2)cc1 [Compound No. 2] | 8.70 | 8.19 | > 20 mM |
| CN(C)C(=O)c1ccc(OC(=O)c2ccc(NC(=N)N)cc2)cc1 [Compound No. 6] | 7.96 | 7.02 | > 20 mM |
